Results taken from patent US20050208147A1, “Isolation of bivittoside D from sea cucumber and activity thereof” (Council of Scientific and Industrial Research, priority 2004, published 2005).

Columns and labels:
[1] = tested on: Aspergillus niger, A. oryzae, Penicillium citrinum, P. chrysogenum, Mucor spinescens, Cladosporium herbarium, Rhodotorula rubra, Trichophyton mentagrophytes, T.; details: panel of eleven fungi; literature report; cited from earlier work
[2] = tested on: Sporothrix schenckii; assay: In vitro antifungal MIC, broth micro-dilution (NCCLS M-27A); type: cell-based
Procedure: (§1) Extracts/fractions/pure compounds obtained from B. vitiensis were tested in in-vitro antifungal activity against five pathogenic fungi in terms of minimum inhibitory concentration (mic,mg/ml) following reference methods. Mics for yeasts: Candida albicans (ca), Cryptococcus neoformans (cn) and Sporothrix schenckii (spo) were determined by broth micro-dilution method according to guide lines of nccls documents m-27a1 (National Committee for Clinical Standards (1997) reference method for broth dilution. Antifungal susceptibility testing of yeast approved standards document m-27a, nccls, wayne, Pa.) In RPMI-1640 medium buffered at pH 7.0 with 0.165 m morpholine propane sulphonic acid (mops: Sigma USA moris; Mo.). Assays were performed in flat bottomed 96 wells microlitre plate. Stock solution of products were prepared in DMSO and diluted by two-fold serial dilution. The working suspension (0.5×103 to 2.5×103) of the innoculum, prepared spectrophotometrically (0.5 mc Farland turbidity standard) was made by a 1:50 dilution followed by a 1:20 dilution of the seeded broth in RPMI-1640. Suitable controls were maintained simultaneously. Plates were incubated at 35° C. and observed visually at 24 hr for ca and 48 hr cn and spo. The susceptibilities of molds Aspergillus fumigatus (af) and Frichophyton mentagrophytes (tm) were determined by the NCCLS proposed document m-38p2 (National Committee for Clinical laboratory Standards (1997) reference method for broth dilution antifungal susceptibility testing of Aspergillus, proposed standards document m-38 p, nccls, wayne, Pa.). In brief, cultures were grown on sabouraud dextrose agar at 35° C. until sporulation occurred. Spores were suspended in 0.85% normal saline and diluted in RPMI-1640 to yield 104 cf p/ml.

[3] = tested on: Candida albicans; assay: as above; type: cell-based
Procedure: as §1

[4] = tested on: Cryptococcus neoformans; assay: as above; type: cell-based
Procedure: as §1

[5] = tested on: Aspergillus fumigatus; assay: In vitro antifungal MIC for molds (NCCLS M-38P); type: cell-based; design: mic against af: unit not given here
Procedure: as §1, with “The working suspension (0.5×103 to 2.5×103) of the innoculum, prepared spectrophotometrically (0.5 mc Farland turbidity standard) was made by a 1:50 dilution followed by a 1:20 dilution of the seeded broth in RPMI-1640. Suitable controls were maintained simultaneously. Plates were incubated at 35° C. and observed visually at 24 hr for ca and 48 hr cn and spo.” left out, “In brief, cultures were grown on sabouraud dextrose agar at 35° C. until sporulation occurred. Spores were suspended in 0.85% normal saline and diluted in RPMI-1640 to yield 104 cf p/ml.” left out

[6] = tested on: trichophyton mentagrophytes; assay: In vitro antifungal MIC for molds (NCCLS M-38P); type: cell-based
Procedure: as §1, with “The working suspension (0.5×103 to 2.5×103) of the innoculum, prepared spectrophotometrically (0.5 mc Farland turbidity standard) was made by a 1:50 dilution followed by a 1:20 dilution of the seeded broth in RPMI-1640. Suitable controls were maintained simultaneously. Plates were incubated at 35° C. and observed visually at 24 hr for ca and 48 hr cn and spo.” left out, “In brief, cultures were grown on sabouraud dextrose agar at 35° C. until sporulation occurred. Spores were suspended in 0.85% normal saline and diluted in RPMI-1640 to yield 104 cf p/ml.” left out

[7] = tested on: human spermatozoa; assay: Spermicidal activity in vitro, Sander Cramer assay; type: cell-based
Procedure: The spermicidal activity was determined by the Sander Cramer assay (Sander, F. V., Cramer, S. D., Human Fertility, (1941) Vol. 6, p-134) using physiological saline (0.85% NaCl). Aqueous solutions (1.0% i.e. 10 mg/ml) of different fractions of B. vitiensis were prepared in physiological saline, which were diluted further up to a concentration of 0.01%. Human semen (0.2 ml) was mixed with each test solution (1.0 ml) separately and vortexed for 10 s. A wet mount of each preparation was immediately examined under a phase contrast microscope. The lowest spermicidal concentration that completely immobilized 100% of the spermatozoa within 20 s. was referred to as MEC (minimum effective concentration). The activity was confirmed in three different semen samples with >50×10^6/ml sperm count and >50% motility.

[8] = read at 48 hr, tested at 1000-1.95 mg/ml

For Bivittoside-D [K007], the “antifungal activities (in words)” value [1] is listed as “significant antifungal activities”, the mic against spo [2] is listed as 6.25 mg/mL and the “Mics against pathogenic fungi, spo” value [2, 8] is listed as 1.56 μg/mi. The mic against ca [3] was 3.12 µg/mL, the “Mics against pathogenic fungi, ca” value ([3]; read at 24 hr, tested at 1000-1.95 mg/ml) was 3.12 μg/mi and the mic against cn [4] was 6.25 mg/mL. For the same substance, the “Mics against pathogenic fungi, Cn” value [4, 8] was 6.25 μg/mi, the mic against af ([5]; Aspergillus fumigatus) was 12.57 and the “Mics against pathogenic fungi, Af” value ([5]; aspergillus fumigates, tested at 1000-1.95 mg/ml) was 12.5 μg/mi. For the same substance, the mic against tm [6] was 1.56 mg/mL, the “Mics against pathogenic fungi, tm” value ([6]; tested at 1000-1.95 mg/ml) was 1.56 μg/mi and the “spermicidal activity (in words)” value ([7]; in vitro model) was “promising spermicidal”. The “Mec (minimum effective concentration)” value ([7]; lowest concentration that completely immobilized 100% of human spermatozoa within 20 s) was 0.05%.
